Legend:
[1] = target: T1, 3',5'-cyclic-AMP phosphodiesterase 4B (Homo sapiens, UniProt Q07343); assay: Inhibition of recombinant human PDE4B expressed in baculovirus infected Sf9 cells at 10 uM using [3H] cAMP as substrate after 30 min by scintillation proximity assay relative to control
[2] = target: T1, 3',5'-cyclic-AMP phosphodiesterase 4B; conditions: Sf9, 10 nM
Description: Inhibition of recombinant human PDE4B expressed in baculovirus infected Sf9 cells at 10 nM using [3H] cAMP as substrate after 30 min by scintillation proximity assay relative to control

[3] = target: T2, 3',5'-cyclic-AMP phosphodiesterase 4D (Homo sapiens, UniProt Q08499); assay: Inhibition of PDE4D2 (unknown origin) at 10 nM relative to control
T2 sequence (Q08499 whole entry): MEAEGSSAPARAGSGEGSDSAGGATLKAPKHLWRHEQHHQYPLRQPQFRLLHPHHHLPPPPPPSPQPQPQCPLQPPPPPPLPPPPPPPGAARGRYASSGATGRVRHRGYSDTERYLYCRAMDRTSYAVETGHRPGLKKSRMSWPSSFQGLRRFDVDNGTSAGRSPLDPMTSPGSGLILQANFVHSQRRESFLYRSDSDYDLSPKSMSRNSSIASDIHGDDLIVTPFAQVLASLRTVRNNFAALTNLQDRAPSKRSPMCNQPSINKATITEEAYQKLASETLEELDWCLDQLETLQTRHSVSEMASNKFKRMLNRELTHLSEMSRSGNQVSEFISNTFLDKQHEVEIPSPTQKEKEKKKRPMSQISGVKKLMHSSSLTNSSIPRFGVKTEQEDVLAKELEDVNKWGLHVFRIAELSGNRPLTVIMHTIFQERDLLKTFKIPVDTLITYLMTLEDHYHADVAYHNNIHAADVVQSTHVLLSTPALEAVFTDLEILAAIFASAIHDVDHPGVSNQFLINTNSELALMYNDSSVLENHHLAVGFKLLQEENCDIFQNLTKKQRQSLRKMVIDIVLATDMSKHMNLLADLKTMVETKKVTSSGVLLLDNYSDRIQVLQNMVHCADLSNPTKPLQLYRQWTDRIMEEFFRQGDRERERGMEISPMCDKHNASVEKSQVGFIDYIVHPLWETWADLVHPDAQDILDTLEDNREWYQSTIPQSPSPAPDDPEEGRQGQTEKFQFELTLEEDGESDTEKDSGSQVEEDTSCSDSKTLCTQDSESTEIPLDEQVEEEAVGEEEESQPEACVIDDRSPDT

[4] = target: T2, 3',5'-cyclic-AMP phosphodiesterase 4D; assay: Inhibition of PDE4D2 (unknown origin) at 30 uM relative to control
[5] = target: T1, 3',5'-cyclic-AMP phosphodiesterase 4B; assay: Inhibition of recombinant human PDE4B expressed in baculovirus infected Sf9 cells using [3H] cAMP as substrate after 30 min by scintillation proximity assay
[6] = Half life in rat liver microsomes at 5 uM incubated for 60 mins; assay type: ADME, Microsome
CAL-27 = assay: Antiproliferative activity against human CAL27 cells assessed as growth inhibition at 10 uM incubated for 72 hrs by sulforhodamine B assay; assay type: functional; conditions: CAL-27, 72 h, read-out: GI
[7] = target: T2, 3',5'-cyclic-AMP phosphodiesterase 4D; assay: Inhibition of PDE4D2 (unknown origin) at 10 uM relative to control
[8] = Intrinsic clearance in rat liver microsomes at 5 uM after 60 mins; assay type: ADME, Microsome; conditions: read-out: CLH
Phosphodiesterase 4 = Phosphodiesterase 4 (Homo sapiens, UniProt P27815+Q08499+Q07343+Q08493); assay: Inhibition of PDE4 (unknown origin) assessed as inhibition of TNF-alpha release; assay type: protein assay
Homo sapiens = organism: Homo sapiens; assay: Selectivity ratio of inhibition of PDE4D2 (unknown origin) to inhibition of recombinant human PDE4B expressed in baculovirus infected Sf9 cells using [3H] cAMP as substrate after 30 min
[9] = Metabolic stability in rat liver microsomes assessed as parent compound remaining at 5 uM after 60 mins; assay type: ADME, Microsome; conditions: read-out: Stability

T1 sequence (Q07343 whole entry): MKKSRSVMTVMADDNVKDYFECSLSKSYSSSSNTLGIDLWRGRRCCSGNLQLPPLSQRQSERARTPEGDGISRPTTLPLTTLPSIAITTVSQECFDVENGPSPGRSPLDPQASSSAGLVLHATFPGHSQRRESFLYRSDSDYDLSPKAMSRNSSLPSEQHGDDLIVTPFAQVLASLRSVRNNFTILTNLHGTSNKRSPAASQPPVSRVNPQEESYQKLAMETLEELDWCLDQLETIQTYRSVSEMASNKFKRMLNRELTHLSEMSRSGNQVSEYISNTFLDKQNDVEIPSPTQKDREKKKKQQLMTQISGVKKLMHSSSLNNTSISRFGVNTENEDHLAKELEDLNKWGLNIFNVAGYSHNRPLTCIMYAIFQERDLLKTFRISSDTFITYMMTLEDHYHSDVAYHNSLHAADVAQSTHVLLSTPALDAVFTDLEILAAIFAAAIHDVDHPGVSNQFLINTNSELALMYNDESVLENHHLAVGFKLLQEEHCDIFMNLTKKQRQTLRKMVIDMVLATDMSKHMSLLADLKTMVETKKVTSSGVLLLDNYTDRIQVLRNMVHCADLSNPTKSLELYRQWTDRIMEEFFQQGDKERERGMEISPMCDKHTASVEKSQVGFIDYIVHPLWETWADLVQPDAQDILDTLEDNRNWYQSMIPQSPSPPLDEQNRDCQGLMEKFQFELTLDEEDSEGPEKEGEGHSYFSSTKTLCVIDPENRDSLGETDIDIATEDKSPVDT

Row | SMILES | inhibition [1] | inhibition at 30 µM [4] | also measured
1 | CCc1ccc2c(c1)cc(COCc1ccccc1Nc1cccc(C)c1C)n2S(=O)(=O)c1ccc(C)cc1 | 32.1% |  | 
2 | Cc1cccc(Nc2ccccc2COCc2cc3cc(Br)ccc3n2S(C)(=O)=O)c1C | 40.4% |  | 
3 | O=C(Nc1c(Cl)cncc1Cl)c1ccc(OC(F)F)c(OCC2CC2)c1 [ROFLUMILAST] |  |  | inhibition [2]: 91.6%; inhibition at 0.01 µM [3]: 88.3%
4 | Cc1ccc(S(=O)(=O)n2c(COCc3ccccc3Nc3cccc(C)c3C)cc3cc(F)ccc32)cc1 | 34.6% |  | 
5 | Cc1cccc(Nc2ccccc2COCc2cc3cc(F)ccc3n2S(C)(=O)=O)c1C | 68% | 42% | half-life at 5 µM [6]: 1.83 h; IC50 [5]: 1.34 µM; inhibition of growth at 10 µM (CAL-27): 55.6%; inhibition at 10 µM [7]: 15%; microsomal CLint at 5 µM [8]: 25.2 µL/min/mg; IC50 (Phosphodiesterase 4): 5.81 µM; inhibition (Phosphodiesterase 4): Dose-dependent effect; Selectivity ratio (Homo sapiens): 4.5; remaining at 1 h, 5 µM [9]: 64.9%
6 | Cc1cccc(Nc2ccccc2COCc2cc3ccccc3n2S(C)(=O)=O)c1C | 61.5% | 40.9% | IC50 [5]: 1.76 µM
7 | Cc1cccc(Nc2ccccc2COCc2cc3cc(Cl)ccc3n2S(C)(=O)=O)c1C | 54.9% | 33.6% | IC50 [5]: 4.48 µM
8 | Cc1ccc(S(=O)(=O)n2c(COCc3ccccc3Nc3cccc(C)c3C)cc3cc(C)ccc32)cc1 | 36.2% |  | 

Second part, led by results:

Row | inhibition [1] | inhibition at 30 µM [4] | SMILES | also measured
9 | 23.1% |  | Cc1ccc(S(=O)(=O)n2c(COCc3ccccc3Nc3cccc(C)c3C)cc3cc(C)cc(C)c32)cc1 | 
10 | 37.3% |  | Cc1cc(C)c2c(c1)cc(COCc1ccccc1Nc1cccc(C)c1C)n2S(C)(=O)=O | 
11 | 55.1% | 38.9% | Cc1ccc2c(c1)cc(COCc1ccccc1Nc1cccc(C)c1C)n2S(C)(=O)=O | IC50 [5]: 4.13 µM
12 | 24.6% |  | Cc1ccc(S(=O)(=O)n2c(COCc3ccccc3Nc3cccc(C)c3C)cc3cc(Br)ccc32)cc1 | 
13 | 26.8% |  | Cc1ccc(S(=O)(=O)n2c(COCc3ccccc3Nc3cccc(C)c3C)cc3cc(Cl)ccc32)cc1 | 
14 | 38.9% | 35.5% | Cc1cccc(Nc2ccccc2C(=O)O)c1C [MEFENAMIC ACID] | 
15 | 39.9% |  | Cc1ccc(S(=O)(=O)n2c(COCc3ccccc3Nc3cccc(C)c3C)cc3ccccc32)cc1 | 

— ChEMBL document CHEMBL4627346, “Ultrasound assisted rapid synthesis of mefenamic acid based indole derivatives under ligand free Cu-catalysis: Their pharmacological evaluation” (Bioorg Med Chem Lett, 2020)
